From US20260356803A1, “Nicotinamide derivatives” (Board of Regents, The University of Texas System, priority 2024, published 2026)
Entries after “also recorded” stand apart in the source; their conditions may differ.

Experiments:
primary mouse GBM cells = details: screen of 200,000 synthetic compounds; cited from earlier work
[1] = test system: human MPNST cells subcutaneously xenografted into mice; details: cited from earlier work
[2] = test system: mouse embryonic fibroblasts; details: cited from earlier work
SARM1 = test: Cytotoxicity in SARM1-knockout versus wild type cells; assay type: cell-based; details: SARM1-knockout vs wild type
Source text: (§1) Given that vacor, 3-AP, and compound 21 are all metabolized to toxic, NAD-like derivatives through NAMPT and NMNAT, we hypothesized that their anti-cancer activity may also depend on SARM1. To test this, we compared the toxic effects of vacor, 3-AP, and 9 in either wild type cells or cells in which we used CRISPR to silence SARM1. […] These observations highlight that even though these different scaffolds are toxified through the same mechanism, the resulting metabolites may have different activities. We next co-titrated guanosine, which is known to rescue tiazofurin by bypassing IMPDH in guanylate synthesis, with each of the above small molecules. […] To test this hypothesis, we set up in vitro reactions with different combinations of 9, NAMPT and NMNAT. After incubation, metabolites were extracted, reconstituted in aqueous solution and then co-incubated with an established IMPDH2 enzyme assay.

[3] = test system: Cas9-expressing HCT116 cells; test: Genome-wide pooled CRISPR/Cas9 knockout screen in HCT116; assay type: cell-based, human
Source text: To gain insight into the mechanism of 9 and the relevance of Nam, we pursued two independent and complementary unbiased genetic approaches. First, we performed a genome-wide pooled Clustered Regularly Interspaced Short Palindromic Repeats (CRISPR) and CRISPR-associated protein 9 (Cas9) knockout screen to identify genes whose loss of function can enhance or suppress compound 9 activity. […] We cultured Cas9-expressing HCT116 cells in 10% FBS Nam-free DMEM and transduced with a lentiviral single guide RNA (sgRNA) library designed to silence 19,114 human genes.^11 These cells were treated with either vehicle (DMSO) or 9 for 30 days by which time the 9-treated cells had 7.6 fewer population doublings. Then, relative sgRNA sequences in the resulting cells were determined by massively parallel sequencing of PCR products amplified from genomic DNA, and the relative impact of each gene was derived from the sgRNA reads.
These observations, taken together, support the hypothesis that the activity of compound 9 depends on NAMPT and NMNAT1.

IMPDH = test: Guanosine co-titration rescue; assay type: cell-based; details: guanosine co-titrated
Source text: as §1

[4] = Levels of 9 in media and cells over time; assay type: cell-based
Source text: Given that compound 21 (1) and 9 both resemble and are rescued by Nam, and the fact that the NAD salvage pathway is essential for toxicity, we considered that these two compounds may themselves be substrates in the NAD salvage pathway. In this model, we would predict that the compounds would be metabolized in cells, and that excess Nam acting as a competitive substrate would block that metabolism. To test this hypothesis, we measured the total amount of 9 in media and cells over time with or without Nam supplementation.
Prior to the experiment, cells were cultured in low-Nam DMEM for at least 1 passage (3 days) to deplete intracellular Nam. 15,000 cells were plated in a 96-well plate with 100 μL low-Nam media. At appropriate time points, 500 nM 1 or 9, or equal volume of vehicle (DMSO) were added using TECAN. 200 μL of acetonitrile with 0.1% formic acid were added to the assayed wells. […] The supernatants were filtered through 0.2 μm PVDF filters and analyzed by LC-MS/TOF.
Initial evaluation of the stability of 9 in the presence and absence of exogenous Nam was performed using LC-MS/MS analysis with a Sciex TripleQuad™ 4500 (AB SCIEX, Framingham, MA, USA) coupled to a Shimadzu (Columbia, MD) Prominence LC. The compound was detected in positive MRM mode following the transition 204.9 to 79.0. […]

[5] = test system: NAMPT activity in S462 cells; test: NMN levels in S462 cells (NAMPT activity in cells); assay type: cell-based, human; details: regular DMEM, increasing concentrations of 9, compared with FK866

| SMILES | anti-proliferative activity (primary mouse GBM cells) | toxic effects in mice ([1]; mice bearing MPNST xenografts) | growth of xenograft tumors ([1]; mice, listed as compound 21) | toxicity to mouse embryonic fibroblasts [2] | sensitivity of SARM1-knockout cells (SARM1) | enrichment of sgRNA reads for NAMPT ([3]; 9-treated cells, 30 days) [fold] | increase in sgRNA reads targeting NMNAT1 ([3]; 9-treated cells, 30 days) [fold] | fewer population doublings ([3]; 9-treated versus vehicle, 30 days) [population doublings] | rank of NAMPT among enriched genes ([3]; out of 19,114 genes) | guanosine rescue of toxicity (IMPDH) | decrease in levels of 9 with Nam ([4]; 100 μM Nam, 24 hours) | half-life at 0.5 µM ([4]; cells in nam-free dmem, 10% FBS Nam-free DMEM) [h] | NMN levels in S462 cells [5] |
| --- | --- | --- | --- | --- | --- | --- | --- | --- | --- | --- | --- | --- | --- |
| O=C(Nc1cccnc1)c1cccs1 [Compound 1, N-(pyridin-3-yl)thiophene-2-carboxamide] | hit | without obvious toxic effects | inhibited the growth; also recorded: reduces the growth of xenograft tumors | nontoxic |  |  |  |  |  |  |  |  |  |
| O=C(Nc1cccs1)c1cccnc1 [Compound 9, N-(Thiophen-2-yl)nicotinamide] |  |  |  |  | equally sensitive | 2.1 | 5.2 | 7.6 | 101 | profound dose-dependent rescue | no appreciable decrease | ~3.8 | did not reduce the levels of NMN to the same extent as FK866 |
